US9547001B2, “Antibody specific for trans-resveratrol and use thereof” (IP Science Limited, priority 2011, dated 2017)
“And” between values parts separate entries of the source, which are not always exact repeats. Identical values can stand only once.

Tests used:
Type in all cases: in vivo
[1] = HPLC-MS measurement of tRV in human serum after 100 mg tRV capsule (nutraceutical study)
Description: (§1) The group of 5 volunteers comprised of 2 female and 3 male clinically healthy Caucasian persons, age between 23 and 35 years.
(§2) They were asked, before commencing this experiment, to go for 3-4 days “wash-out”, when consumption of any grape, wine, peanut, chocolate and other products which might contain them.
(§3) In the morning of the experiment, one hour after light breakfast, volunteers were given 1 gelatine capsule containing 100 mg of tRV.
(§4) Blood samples were taken from their median cubital or cephalic veins at the baseline point. Then, after administration of tRV, their blood was taken again at the following time points: 30 minutes, 1 hour, 2, 3, 4, 6 and 8 hours.
(§5) After taking blood its serum was separated, aliquoted and stored at −80° C. for further testing.

[2] = anti-tRV ELISA measurement of tRV in human serum after 1 mg tRV in 200 ml red wine (wine study); conditions: sum of 1 h + 2 h + 4 h + 6 h + 8 h, one value per volunteer
Description: (§6) 2 ml of ethyl acetate was added to 0.5 ml of serum sample, then mixed on a vortex for 3 minutes, followed by centrifugation for 2 minutes at 500 r/min. The upper layer of ethyl acetate was transferred into a new tube. To the remaining lower water fraction a second portion of 2 ml ethyl acetate was added and the extraction procedure was repeated. The new ethyl acetate fraction was added to the old one, giving a total volume of 4 ml, which was then dried by air flow at 60° C., using a Reacti-Therm™III, Thermo scientific, USA.[…]. 40 μl of ethanol was then added and mixed on vortex, then 160 μl of PBS with 0.5% BSA was added and mixed again. This final solution was used for the analysis described below.
RV-BSA was pre-absorbed on microplate wells in 0.1M carbonate buffer, pH=9.5 (at a concentration of 5 μg/ml) overnight at 4° C. […]
(§7) The plate was washed out four times with PBST, and then a chromogeninc substrate was added, tetramethylbenzidine+H2O2. After stopping the reaction with 1M H2SO4, optic density was read at λ450 nm, Multiscan EX (<<Thermo>>, USA).
Inhibition by free tRV of the binding of serum antibodies with immobolised RV-BSA (Kin) was calculated according to the following formula: Kin=100−(A450D/A450C−)×100, where: • A450D is the optic density in samples with free tRV (testing serum or samples from the calibrating curve), • A450 C is the an optic density without free tRV. […]

[3] = HPLC-MS measurement of tRV in human serum after 1 mg tRV in 200 ml red wine (wine study); conditions: sum of 1 h + 2 h + 4 h + 6 h + 8 h, one value per volunteer
Description: The same volunteers also participated in a wine study. The same “wash out” period was used, and the same timing of the experiment was applied. Instead of taking a capsule of tRV each of the volunteers consumed 200 ml of red wine, which was selected on a basis that it would contain 1 mg of tRV in this volume. The rest of the Protocol employed was the same as above.
After taking blood, serum was separated, aliquoted and stored at −80° C. for further testing.

[4] = anti-tRV ELISA measurement of tRV in human serum after 100 mg tRV capsule (nutraceutical study)
Description: as §6
RV-BSA was pre-absorbed on microplate wells in 0.1M carbonate buffer, pH=9.5 (at a concentration of 5 μg/ml) overnight at 4° C. After washing four times the PBST plate was blocked with PBS contacting 1% of Top Block (<<Yuro>>, Switzerland).
For the calibrating curve different concentrations of tRV were added into the wells. The stock solution used was 1 mg/ml of tRV diluted in PBST with 0.5% BSA and 20% ethanol. 50 μl of each serum extract to be tested were added to parallel wells. After which 50 μl of the conjugate of HRP with monoclonal anti-tRV antibodies was added to all the wells. The content of the wells was mixed using a shaker for 1 minute and then the plate was then incubated for 1 hour at +37° C.
as §7
Inhibition by free tRV of the binding of serum antibodies with immobolised RV-BSA (Kin) was calculated according to the following formula: Kin=100−(A450D/A450C−)×100, where: • A450D is the optic density in samples with free tRV (testing serum or samples from the calibrating curve), • A450 C is the an optic density without free tRV.
as §1, §2, §3, §4, §5

[5] = 1 h after 100 mg tRV, volunteers 1 and 2
[6] = 2 h after 100 mg tRV, volunteers 1 and 2
[7] = human serum, 100 mg tRV dietary supplement, sum of 30 min + 1 h + 2 h + 3 h + 4 h + 6 h + 8 h, one value per volunteer
[8] = human, serum, oral, 100 mg, 1 h after 100 mg tRV, volunteers 1 and 2
[9] = human, serum, oral, 100 mg, 2 h after 100 mg tRV, volunteers 1 and 2

Q: What does the source list for `Oc1ccc(/C=C/c2cc(O)cc(O)c2)cc1` [tRV, trans-Resveratrol]?
A: Concentration of tRV in serum, HPLC-MS [1, 5]: 97 ng/mL; Concentration of tRV in serum, HPLC-MS [1, 6]: 21 ng/mL; Concentration of tRV in serum as a sum of 7 separate measurements, HPLC-MS [1, 7]: 98 ng/mL and 139 ng/mL and 79 ng/mL and 37 ng/mL and 107 ng/mL; concentration at 1 h [1, 8]: 65 ng/mL; concentration at 2 h [1, 9]: 12 ng/mL; Concentration of tRV in serum as a sum of 5 separate measurements, ELISA [2]: 310 ng/mL and 850 ng/mL and 120 ng/mL and 460 ng/mL and 380 ng/mL; Concentration of tRV in serum as a sum of 5 separate measurements, HPLC-MS [3]: 6 ng/ml and 572 ng/ml and 0 ng/ml (3×); Concentration of tRV in serum, ELISA ([4]; 30 min after 100 mg tRV, volunteers 1 and 2): 90 ng/mL; Concentration of tRV in serum, ELISA [4, 5]: 490 ng/mL; Concentration of tRV in serum, ELISA [4, 6]: 255 ng/mL; Concentration of tRV in serum, ELISA ([4]; 3 h after 100 mg tRV, volunteers 1 and 2): 10 ng/mL; Concentration of tRV in serum, ELISA ([4]; 4 h after 100 mg tRV, volunteers 1 and 2): 195 ng/mL; Concentration of tRV in serum, ELISA ([4]; 6 h after 100 mg tRV, volunteers 1 and 2): 620 ng/mL; Concentration of tRV in serum as a sum of 7 separate measurements, ELISA [4, 7]: 1600 ng/mL and 1900 ng/mL and 1070 ng/mL and 795 ng/mL and 1412 ng/mL; concentration at 30 min ([4]; human, serum, oral, 100 mg, 30 min after 100 mg tRV, volunteers 1 and 2): 140 ng/mL; concentration at 1 h [4, 8]: 650 ng/mL; concentration at 2 h [4, 9]: 210 ng/mL; concentration at 3 h ([4]; human, serum, oral, 100 mg, 3 h after 100 mg tRV, volunteers 1 and 2): 20 ng/mL; concentration at 4 h ([4]; human, serum, oral, 100 mg, 4 h after 100 mg tRV, volunteers 1 and 2): 135 ng/mL; concentration at 6 h ([4]; human, serum, oral, 100 mg, 6 h after 100 mg tRV, volunteers 1 and 2): 420 ng/mL
